Results as given in patent publication US6391885B1, “Method of treating a patient having precancerous lesions with phenyl cycloamino pyrimidinone derivatives” (Cell Pathways, Inc., priority 1995, dated 2002).

| melting point | Structure (SMILES) |
| --- | --- |
| 178 to 180 °C | CCCc1ccnc2c(=O)[nH]c(-c3cc(S(=O)(=O)N4CCNCC4)ccc3OCC)nc12 [Example 3, 2-[2-Ethoxy-5-(1-piperazinylsulphonyl)phenyl]-8-n-propylpyrido[3,2-d]pyrimidin-4(3H)-one] |
| 204 to 205 °C | CCCc1ccnc2c(=O)[nH]c(-c3cc(S(=O)(=O)N4CCC(C(=O)OCC)CC4)ccc3OCC)nc12 [Example 4, 2-[2-Ethoxy-5-(4-ethoxycarbonylpiperidinosulphonyl)phenyl]-8-n-propylpyrido[3,2-d]pyrimidin-4(3H)-one] |
| 216 to 219 °C | CCCc1ccnc2c(=O)[nH]c(-c3cc(S(=O)(=O)NC)ccc3OCC)nc12 [Example 6, 2-[2-Ethoxy-5-(methylsulphamoyl)phenyl]-8-n-propylpyrido[3,2-d]pyrimidin-4(3H)-one] |
| 195 to 197 °C | CCCOc1ccccc1-c1nc2nnc(SC)nc2c(=O)[nH]1 [Example 75, 5,6-Dihydro-3-methylthio-5-oxo-7-(2-propoxyphenyl)pyrimido[5,4-e][1,2,4]triazine] |
| 247 to 249 °C | CCCOc1ccccc1-c1nc2nc(SC)nnc2c(=O)[nH]1 [Example 79, 3-Methylthio-8-oxo-6-(2-propoxyphenyl)-7,8-dihydropyrimido[4,5-e][1,2,4]triazine] |
